Measurements reported in paper PMC5059921, “Chalepin: isolated from Ruta angustifolia L. Pers induces mitochondrial mediated apoptosis in lung carcinoma cells” (BMC Complementary and Alternative Medicine, 2016).
Like-named read-outs stand apart in the source and are kept apart here.

How the values were obtained:
[1] = test system: MRC5 (human normal lung fibroblasts); experiment: SRB in vitro cytotoxicity screening (toxicity to normal cells); assay type: cell-based; conditions: Homo sapiens, MRC5, isolated compounds, 72 h, read-out: IC50 in μg/ml (μM) (MRC5) 72 h (converted)
Experimental: The human cell lines A549 (lung cancer) and Ca Ski (cervical cancer) were cultured as monolayer in RPMI 1640 growth media whereas HCT-116 (colon cancer) and MRC5 (human normal lung fibroblasts) was cultured in McCoy’s 5A and EMEM medium, respectively. All cells were purchased from the […] (ATCC, USA). All the media were supplemented with 10 % v/v foetal bovine serum (FBS), 100 μg/mL penicillin/streptomycin, and 50 μg/mL amphotericin B. The cells were cultured in a 5 % CO2 incubator at 37 °C.
The monolayer cell culture was detached using accutase and the cell count was adjusted to 2.5 x10^5 -3.0 x10^5 cells/mL using medium containing feotal bovine serum. The cells were then plated into 96 wells with a cell density of 5000-7000 cells/well and then incubated for 24 h to allow adherence of cells to the base of well of the plates. The media was then removed and 200 μl of fresh media containing different concentration of various extracts or isolated compounds were added. Cisplatin was used as the positive control. The plates were incubated for 24, 48 and 72 h at 37 °C and 5 % CO2. The cytotoxicity of the extracts and isolated compounds were screened using the […] (SRB) assay. This assay was first described by Houghton in 2007 [8]. The incubation was halted by gentle addition of 50 μl ice cold 4 % trichloroacetic acid (TCA) to each well and the plates were incubated at 4 °C for 1 h. Then, the supernatant was discarded and the plates were washed with distilled water for 5 times and then air dried. SRB dye, 50 μl, (0.4 % w/v) was added into each well and the treated cells and control were incubated at room temperature for 30 min. The unbound dye was removed by rapid washing four times with 1 % acetic acid. The plates were then air dried and 100 μl of tris base (10 mM unbuffered, pH 10.5) was added and the plates were shaken at 500 rpm for 5 min to solublize the bound SRB stain. The plates were then read with an ELISA reader (Synergy H1 Hybrid) at an absorbance of 492 nm.

A549 cells [2] = experiment: Apoptosis detection by Annexin V-FITC/PI staining (flow cytometry); assay type: cell-based, human; conditions: incubation time not stated
Experimental: FITC annexin V apoptosis detection kit (BD) was used to detect apoptosis. Cells were seeded in tissue culture dishes (5000-7000 cells/dish) and allowed to adhere overnight. Next, the cells were treated with various concentrations of chalepin for 48 and 72 h. The cells were harvested, washed, and resuspended in 1x binding buffer according to the manual provided in the kit. In the next step, the cells were stained in the ratio of per 100,000 cells; staining of cells with 5 μL of FITC-annexin V and 5 μL of propidium iodide was done for 15 min. Then, 200 μL of 1× binding buffer was added to each sample. Unstained and single-stained untreated cells were also included as controls. A minimum number of 10,000 events was acquired for each replicate using Accuri C6 flow cytometer. A quadrant statistic was used to measure the population of viable, early apoptotic, late apoptotic and secondary necrotic cells. The determination betweent these different populations were obtained by estimating quantitatively the cells that were AnnexinV/PI stained.

A549 cells [3] = experiment: Intracellular ROS measurement (DCFH-DA); assay type: cell-based, human; conditions: A549, 45 μg/ml, 6 h incubation
Experimental: The assay was conducted as described by Ling et al. with some minor modifications. The ROS measurement was done using the fluorescent probe 2’,7’-dichlorofluorescein diacetate (DCFH-DA) that enabled the monitoring of intracellular accumulation of ROS. The A549 cells were seeded into a 96 well plate with a density of 2×10^4 cells per well and allowed to attach overnight. Treatment with chalepin at various concentrations were done the next day and incubated for different time periods. At the end of the incubation period, the media was removed and 5 μM of DCFH-DA which is diluted in media was added to the cells and incubated for 40 min at 37 °C. The cells were then washed three times with clear media and the fluorescence intensity (excitation = 485 nm and emission = 530 nm) was measured using a microplate reader. The morphology of the cells were observed using a fluorescence microscope.

A549 cells [4] = experiment: Western blot analysis of apoptotic proteins; assay type: cell-based, human
[5] = test system: hepatitis C virus, hepatoma cell line (Huh7.5); set-up: method as in PMID 25454460; conditions: cited from earlier work
[6] = A549, 36 μg/ml, 2,4,8,12 and 24 h

C=CC(C)(C)c1cc2cc3c(cc2oc1=O)O[C@H](C(C)(C)O)C3 [Chalepin, chalepin]
IC50 ([1]; value in brackets): 74.5 µM | IC50 [1]: 23.4 ± 0.6 µg/mL | Annexin V positive cells (early and late apoptotic) (A549 cells [2]; A549, 9 μg/ml): 7.27 ± 0.16% | Annexin V positive cells (early and late apoptotic) (A549 cells [2]; A549, 45 μg/ml): 20.6 ± 0.53% | ROS fold increase vs untreated control (A549 cells [3]): 62.24 fold | Procaspase 3 (A549 cells [4]; [6]): downregulation | Procaspase 9 (A549 cells [4]; [6]): downregulation | anti-apoptotic gene products Bcl-2, survivin, XIAP, Bcl-xl and cFLIP (A549 cells [4]; [6]): downregulate | cleaved caspase 3 (A549 cells [4]; [6]): upregulation | expression of Bax (A549 cells [4]; [6]): upregulation | expression of cytochrome c (A549 cells [4]; [6]): upregulation | expression of p53 (A549 cells [4]; [6]): upregulation | quantity of PARP expressed (A549 cells [4]; [6]): decreased with time | Bak (A549 cells [4]; A549, 36 μg/ml, time dependently): upregulated | replication of hepatitis C virus [5]: stop the replication
